From US11708318B2, “Polymorphic forms of RAD1901-2HCL” (Radius Pharmaceuticals, Inc., priority 2017, dated 2023) come the findings set out here.

One may read the solubility as how much of the substance goes into solution per volume.

“Also recorded” adds a separate entry of the source.

Common to all, as to assay type: physicochemical
The nature of data set [1]: Storage at elevated temperature/humidity, analysed by XRPD. The method, then: Samples 1 and 2 were characterized by XRPD at various conditions. XRPD patterns were collected for the samples at ambient condition as the samples were provided; at variable temperature (VT-XRPD); at variable humidity (VH-XRPD); after the samples were exposed to 40° C./75% RH for 1 week and 25° C./97% RH for 1 week, respectively; and after a GVS measurement wherein the samples were exposed to 0-90% RH. Samples 1 and 2 were also characterized by ^1H NMR, TGA, DSC, KF, IC, GVS (exposed to 0-90% RH), PLM, SEM, and HPLC (Table 5).

A short description of data set [2]: Gravimetric Vapour Sorption (GVS), with XRPD of the recovered sample. As to conditions: for Hygroscopicity (GVS): 0-90% RH. The protocol:
Sorption isotherms were obtained using a SMS DVS Intrinsic moisture sorption analyzer, controlled by DVS Intrinsic Control software v1.0.1.2 (or v 1.0.1.3). The sample temperature was maintained at 25° C. by the instrument controls. The humidity was controlled by mixing streams of dry and wet nitrogen, with a total flow rate of 200 ml/min. The relative humidity was measured by a calibrated Rotronic probe (dynamic range of 1.0-100% RH), located near the sample. The weight change, (mass relaxation) of the sample as a function of % RH was constantly monitored by the microbalance (accuracy ±0.005 mg).
A sample (e.g., 20 mg) was placed in a tared mesh stainless steel basket under ambient conditions. The sample was loaded and unloaded at 40% RH and 25° C. (typical room conditions). A moisture sorption isotherm was performed as outlined below (2 scans giving 1 complete cycle). Standard isotherms were performed at 25° C. at 10% RH intervals over a 0-90% RH range. Data analysis was carried out using Microsoft Excel using DVS Analysis Suite v6.2 (or 6.1 or 6.0).
In a cycle of 2 scans, the first scan was performed with adsorption of 40-90% RH, followed by a second scan with desorption of 90-0% RH and adsorption of 0-40% RH, with intervals of 10% RH, at 25° C. with stability dm/dt of 0.002% ° C./min. The sorption time was 6 hr time out.
The sample was recovered after completion of the isotherm and re-analyzed by XRPD. Custom moisture sorption methods were also performed at 25° C. at fixed % RH intervals over a 0-95% RH range, with the purpose to fully understand the sorption/desorption behavior of the compound under elevated conditions.
To further explore the humidity behavior of Sample 1 (Form 1) upon exposure to high RH (>90%), custom GVS experiments were designed and carried out. Initially, the sample was treated by holding at 90 and then 95% RH for ˜12 hours to see if hydrate formation could be observed (HighRH method of Steps 1 and 2 of Table 2, FIGS. 6C-6D).
To test the stability of the hydrated state, GVS method HighRH_Desorp_3 was designed with a desorption step and subsequent adsorption (see Table 2 with steps 1-4, FIGS. 6E-6F).
Finally, to ensure complete conversion to the anhydrous and hydrated forms, a GVS experiment was designed to increase both the length of the desorption step at 0% RH, and the adsorption step at 95% RH, respectively (Table 3). Based on the weight stabilization observed in the kinetic plots for Sample 1 in HighRH and HighRH_Desorp_3 methods discussed above (FIGS. 6D and 6F), a holding time of 800 mins at 0% RH and 1600 mins at 95% RH were chosen. A double cycle was also recorded for this experiment to observe whether the sample would return to Form 1 or form a mixed anhydrous/hydrated species (see Table 3, FIGS. 6G-6H).

Data set [3] in a line: Solubility assessment of amorphous RAD1901-2HCl in water/organic solvent system. As to conditions: organic solvent or mixture, thermodynamic from solid. The method, then:
Samples of amorphous RAD1901-2HCl were prepared in water/organic solvent mixtures containing varying ratios of water. The organic solvents chosen were anhydrous ethanol, methanol and ethyl acetate. The percentage of water in the water/organic solvent mixtures was varied between 0 and 10% (v/v) in order to place a limit on the level of water that can be present during production processes, and to retain formation of Form 1. Above this water activity limit, the hydrated Form 3 will be obtained, as shown by GVS experiments (see FIGS. 6G and 20A). It should be noted that samples prepared in ethyl acetate, were either slurried in anhydrous ethyl acetate, or in water saturated ethyl acetate.
The water activity values for each water/organic solvent mixture are provided in Table 16, and were calculated using the reference given in Bell, Halling, Enzyme Microbiol. Technol. 1997, 20, 471, incorporated herein by reference.

A short description of data set [4]: Solubility assessment of amorphous RAD1901-2HCl. Particulars: thermodynamic from solid, read-out: Solubility assessment 10 vol. The method, then:
In a scale-up preparation of amorphous RAD1901-2HCl, RAD1901-2HCl (600 mg) was dissolved in water (20 vol., 12 mL) and filtered to remove any remaining solid particles. The solution was then aliquoted into 24 HPLC vials, frozen in a dry ice/acetone bath and the solvent removed by lyophilisation. Solids produced by lyophilization were used directly in solubility assessment and polymorph screens in Example 4.
Amorphous RAD1901-2HCl prepared as described in Example 3B was used directly in solubility assessment and polymorph screens (Table 15). XRPD patterns were further obtained for amorphous RAD1901-2HCl prepared using other solvents.

Turning to `CCNCCc1ccc(CN(CC)c2cc(OC)ccc2[C@@H]2CCc3cc(O)ccc3C2)cc1.Cl.Cl` [Form 1], the “XRPD after storage at 25° C./97% RH for 1 week” value in data set [1] (25° C./97% RH, 1 week) is listed as “converted to Form 3; also recorded: conversion towards a hydrated state Form 3”. The “XRPD after storage at 40° C./75% RH for 1 week” value in data set [1] (40° C./75% RH, 1 week) was “stable”. Also, in data set [1] (high RH (>90%), e.g. for 7 days), the “Solid form on prolonged exposure to high RH (>90%)” value is recorded as “converted to the hydrate Form 3”. For the same compound, the “Stability of the polymorphic form (overall characterization)” value in data set [1] (relative to heat and/or humidity) was “stable”. Also, the “Hygroscopicity (GVS)” value in data set [2] is “relatively non-hygroscopic; also recorded: low hygroscopicity”. Further, the “Solid form on exposure to high RH (>90%) by GVS” value in data set [2] (above 90% RH) was “irreversibly converted to the hydrate Form 3; also recorded: started converting to the hydrate Form 3”. Further, in data set [2] (after exposure to 0-90% RH), the “XRPD post GVS (uptake 0-90% RH)” value is listed as “stable; also recorded: No changes”. The “Hygroscopicity compared with Form 2” value in data set [2] (than Form 2) is “lower hygroscopicity”.

As to `CCNCCc1ccc(CN(CC)c2cc(OC)ccc2[C@@H]2CCc3cc(O)ccc3C2)cc1.Cl.Cl` [Form 2], the “Solid form after exposure to >40% RH for 7 days” value in data set [1] (>40% RH, 7 days) is “Form 3”. The “Hygroscopicity (GVS)” value in data set [2] is recorded as “hygroscopic”.

`CCNCCc1ccc(CN(CC)c2cc(OC)ccc2[C@@H]2CCc3cc(O)ccc3C2)cc1.Cl.Cl` [Form 3]: the “Solid form after exposure to <40% RH for 8 hr” value in data set [1] (<40% RH, 8 hr) is on record as “Form 2”.

Consider `CCNCCc1ccc(CN(CC)c2cc(OC)ccc2[C@@H]2CCc3cc(O)ccc3C2)cc1.Cl.Cl` [amorphous RAD1901-2HCl], for which the solubility in data set [3] (EtOH/H2O (90:10), EtOH/H2O (90:10), sample ID C1, read-out: Solubility assessment 10 vol.) is more than 100 mg/mL; in data set [3] (EtOH/H2O (95:5), EtOH/H2O (95:5), sample ID C2, read-out: Solubility assessment 10 vol.), less than 100 mg/mL; in data set [3] (EtOH/H2O (98:2), EtOH/H2O (98:2), sample ID C3, read-out: Solubility assessment 10 vol.), less than 100 mg/mL; in data set [3] (EtOH/H2O (99:1), EtOH/H2O (99:1), sample ID C4, read-out: Solubility assessment 10 vol.) it was less than 100 mg/mL; in data set [3] (MeOH/H2O (90:10), MeOH/H2O (90:10), sample ID C5, read-out: Solubility assessment 10 vol.), more than 100 mg/mL; in data set [3] (MeOH/H2O (95:5), MeOH/H2O (95:5), sample ID C6, read-out: Solubility assessment 10 vol.), more than 100 mg/mL. Further, the solubility in data set [3] (MeOH/H2O (98:2), MeOH/H2O (98:2), sample ID C7, read-out: Solubility assessment 10 vol.) is less than 100 mg/mL; in data set [3] (MeOH/H2O (99:1), MeOH/H2O (99:1), sample ID C8, read-out: Solubility assessment 10 vol.), less than 100 mg/mL; in data set [3] (anhydrous ethyl acetate, Ethyl acetate (anhydrous), sample ID C9, read-out: Solubility assessment 10 vol.) it was less than 100 mg/mL; in data set [3] (anhydrous ethyl acetate, Ethyl acetate (anhydrous), sample ID C9, read-out: Solubility assessment 20 vol), less than 50 mg/mL; in data set [3] (anhydrous ethyl acetate, Ethyl acetate (anhydrous), sample ID C9, read-out: Solubility assessment 30 vol), less than 33.3 mg/mL; in data set [3] (water-saturated ethyl acetate, Water-saturated ethyl acetate, sample ID C10, read-out: Solubility assessment 10 vol.) it was less than 100 mg/mL. Moreover, the solubility was less than 50 mg/mL in data set [3] (water-saturated ethyl acetate, Water-saturated ethyl acetate, sample ID C10, read-out: Solubility assessment 20 vol); less than 33.3 mg/mL in data set [3] (water-saturated ethyl acetate, Water-saturated ethyl acetate, sample ID C10, read-out: Solubility assessment 30 vol); less than 100 mg/mL in data set [4] (organic solvent or mixture, 1,2-dimethoxyethane, sample ID B16); less than 100 mg/mL in data set [4] (organic solvent or mixture, 1,4-Dioxane, sample ID B14); less than 100 mg/mL in data set [4] (organic solvent or mixture, 1-propanol, sample ID B8); less than 100 mg/mL in data set [4] (organic solvent or mixture, 2-propanol, sample ID B6). For the same compound, the solubility is more than 100 mg/mL in data set [4] (organic solvent or mixture, 10% water/EtOH, sample ID B22); less than 100 mg/mL in data set [4] (organic solvent or mixture, 10% water/IPA, sample ID B23); less than 100 mg/mL in data set [4] (organic solvent or mixture, 10% water/THF, sample ID B24); less than 100 mg/mL in data set [4] (organic solvent or mixture, Acetone, sample ID B9); less than 100 mg/mL in data set [4] (organic solvent or mixture, Acetonitrile, sample ID B20); less than 100 mg/mL in data set [4] (organic solvent or mixture, Dichloromethane, sample ID B18). The solubility is more than 100 mg/mL in data set [4] (organic solvent or mixture, Dimethyl sulfoxide, sample ID B11); less than 100 mg/mL in data set [4] (organic solvent or mixture, Ethanol, sample ID B10); less than 100 mg/mL in data set [4] (organic solvent or mixture, Ethyl acetate, sample ID B3); less than 100 mg/mL in data set [4] (organic solvent or mixture, Isopropyl acetate, sample ID B4); less than 100 mg/mL in data set [4] (organic solvent or mixture, MEK, sample ID B7); less than 100 mg/mL in data set [4] (organic solvent or mixture, MIBK, sample ID B5). The solubility in data set [4] (organic solvent or mixture, Methanol, sample ID B19) is less than 100 mg/mL; in data set [4] (organic solvent or mixture, Nitromethane, sample ID B21), less than 100 mg/mL; in data set [4] (organic solvent or mixture, Propyl acetate, sample ID B2) it was less than 100 mg/mL; in data set [4] (organic solvent or mixture, TBME, sample ID B13), less than 100 mg/mL; in data set [4] (organic solvent or mixture, Tetrahydrofuran, sample ID B17), less than 100 mg/mL; in data set [4] (organic solvent or mixture, Toluene, sample ID B15), less than 100 mg/mL. Further, the solubility is less than 100 mg/mL in data set [4] (organic solvent or mixture, n-Heptane, sample ID B1) and more than 100 mg/mL in data set [4] (Water, sample ID B12).
